Test results from patent US7696233B2, “Method for controlling particular insect pests by applying anthranilamide compounds” (E. I. du Pont de Nemours and Company, priority 2001, dated 2010).
Like-named read-outs stand apart in the source and are kept apart here.

Key:
[1] = test system: Heliothis virescens (tobacco budworm); type: in vivo; conditions: 10 mL of 300 ppm, 0 equals no feeding
Experimental: Seventy-eight cotton plants were grown in the greenhouse with natural lighting in Sassafras soil in six inch pots. When six true leaves were on the plant (approximately 36 cm tall) the soil was drenched with a solution of Compound 497, 500, 530, 531 or 543. Each of the 5 compounds was dissolved in 2 mL of acetone, and distilled water was added to make 300 ppm solutions of each of the compounds. The pots were divided into six groups (13 plants/treatment), and 10 mL of each solution was applied over the soil surface of each group with one group left untreated. The plants were arranged in the greenhouse in a randomized block design. Each treatment was divided into three groups for sampling at 24, 48, and 96 hours.
Leaves were taken from the base and terminal of the plants. The leaves from the third node and the terminal leaves greater than 15 cm^2 were sampled per plant. One clipped leaf from each plant was cut into four pieces and each piece was placed into an well with one second-instar larvae of Heliothis virescens (tobacco budworm). Larval mortality (% M) was recorded 96 hours after sampling. The percentage of leaf feeding (% FF) was also recorded. Consumption of the leaf in the well was reported as 0-100% (0 equals no feeding).

[2] = test system: Colorado potato beetle (Leptinotarsa decemlineata); test: Test L: soil systemic control of Colorado potato beetle, tomato; type: in vivo; conditions: 5 ppm, 5 mL to soil; leaf excised after 4 days; mortality after four days
Experimental: For evaluating soil systemic control of Colorado potato beetle (Leptinotarsa decemlineata), transplanted tomato plants were grown in 6-cm pots for 5 days until they were at the two true leaf stage.
Test compounds were dissolved in 0.25 mL of acetone and diluted with water provide solutions of 5 ppm. Five mL of the appropriate test solution was applied by pipette to the surface of the soil in each pot, followed by 5 mL of water, with eight plants for each compound/rate. The pots were covered and held at 25° C. with 16 hours of light per day. The plants were watered the next day and each day following as needed. After 4 days, one leaf from each plant was excised and placed into a well of a test tray as described in Test H. One 5-day old Colorado potato beetle (Leptinotarsa decemlineata) was placed in each well, the tray was covered and then the test units were held at 25° C. with 16 hours of light per day. Mortality was observed after four days.

[3] = test system: tobacco budworm (Heliothis virescens); test: Test I: soil systemic control of tobacco budworm, cotton; type: in vivo; conditions: 10 ppm, 10 mL to pots weekly for four weeks
Experimental: For evaluating soil systemic control of tobacco budworm (Heliothis virescens), cotton plants were grown in sassafras soil in 15-cm pots in aluminum trays. When the plants reached square stage (bud formation on the plant) the plants were treated with the test compounds.
Test compounds were formulated in 0.25 mL of acetone and then diluted with water to provide solutions of 10 ppm. Ten mL of the treatment solutions was added to the pots weekly for four weeks, with four replicates of each treatment rate. One day after the second, third and fourth treatments, 35-50 first instar Heliothis virescens larvae were brushed on each plant with paintbrushes and placed on the terminal area, squares, and bolls. Five days after the last infestation with larvae the plants were rated for damage.

[4] = test system: southern fire ants (Solenopsis xyloni); test: Test R: fire ant bait test; type: in vivo; conditions: fifty ants per cage
Description: For evaluating control of fire ant (Solenopsis xyloni), Compound 531 was mixed with water and then mixed into a slurry with equal amounts (by weight) of Niban granular bait with no active ingredient (supplied by Nisus Corp.). The baits were uniformly sprinkled onto the sand substrate in each test cage. Fifty field-collected southern fire ants (Solenopsis xyloni) were then placed into each cage and provided water via a saturated cotton ball. The cages were held indoors with indirect sunlight and temperatures ranging from 22 to 31° C. Four test replicates were set up per rate. Evaluations were conducted at 1, 3, 7, 10, and 14 days after treatment (DAT) by counting and removing the killed ants found in each cage.

[5] = test system: German cockroaches (Blatella germanica); test: Test Q: German cockroach bait test; type: in vivo; conditions: ten cockroaches per cage
Experimental: For evaluating german cockroach (Blatella germanica), Compound 531 was mixed with water, and then blended into a slurry with equal amounts (by weight) of peanut butter. Approximately 1 gram of bait was placed into each test cage. Ten German cockroaches (Blatella germanica) were then placed into each cage, and provided water via a saturated cotton ball. The cages were held indoors, with indirect sunlight, and temperatures ranging from 22 to 31° C. Four test replicates were set up per rate. Evaluations were conducted 1, 2, 3, 5, and 7 days after treatment (DAT) by counting and removing the killed roaches found in each cage.

[6] = test system: thrips (Frankliniella sp.); test: Test N: control of thrips, sprayed cotton or soybean plants; type: in vivo; conditions: sprayed at 10 ppm; four days after application
Experimental: For evaluating control of thrips (Frankliniella sp.), samples of the test compounds were dissolved in 1 mL of acetone. This solution was then diluted to 100 mL total volume using an aqueous 500 ppm solution of Ortho X-77™ surfactant. Serial dilutions were made to obtain 50 mL of 10 ppm concentration.
The diluted solutions of the test compounds were sprayed to run-off on three-week-old cotton or soybean plants infested with thrips. The plants were placed on a rotating turntable sprayer (10 rpm). Test solutions were applied using a flat fan air-assisted nozzle (Spraying Systems 122440) at 10 psi (69 kPa). Sprayed and dried plants were incased in a plastic cylinder. At four days after application the total number of dead thrips was recorded.

[7] = base leaf sampled 24 h after drench
[8] = base leaf sampled 48 h after drench
[9] = base leaf sampled 96 h after drench
[10] = terminal leaf sampled 24 h after drench
[11] = terminal leaf sampled 48 h after drench
[12] = terminal leaf sampled 96 h after drench

## Cc1cc(Cl)cc(C(=O)NC(C)C)c1NC(=O)c1cc(Br)nn1-c1ncccc1Cl [Compound 530]
[1]; [7]
  % FF (percentage of leaf feeding): 80%
[1]; [8]
  % FF (percentage of leaf feeding): 50%
[1]; [9]
  % FF (percentage of leaf feeding): 5%
[1]; [10]
  % FF (percentage of leaf feeding): 50%
[1]; [11]
  % FF (percentage of leaf feeding): 20%
[1]; [12]
  % FF (percentage of leaf feeding): 5%

## CCn1nc(C(F)(F)F)cc1NC(=O)c1c(C)cccc1C(=O)NC(C)C
other
  melting point: 200 to 204 °C

## Cc1cccc(C(=O)NC(C)C)c1NC(=O)c1cc(C(F)(F)F)nn1-c1ncccc1Cl [Compound 214]
[2]
  mortality and feeding inhibition: excellent levels of mortality and feeding inhibition
[3]
  protection of squares and bolls: excellent protection of squares and boils including no or minimal sepal damage

## CNC(=O)c1cc(Cl)cc(C)c1NC(=O)c1cc(C(F)(F)F)nn1-c1ncccc1Cl [Compound 500]
[1]; [7]
  % FF (percentage of leaf feeding): 80%
[1]; [8]
  % FF (percentage of leaf feeding): 80%
[1]; [9]
  % FF (percentage of leaf feeding): 30%
[1]; [10]
  % FF (percentage of leaf feeding): 60%
[1]; [11]
  % FF (percentage of leaf feeding): 60%
[1]; [12]
  % FF (percentage of leaf feeding): 30%

## CNC(=O)c1cc(Cl)cc(C)c1NC(=O)c1cc(Cl)nn1-c1ncccc1Cl
other
  melting point: 205 to 207 °C

## Cc1cc(Cl)cc(C(=O)NC(C)C)c1NC(=O)c1cc(C(F)(F)F)nn1-c1ncccc1Cl [Compound 497]
[1]; [7]
  % FF (percentage of leaf feeding): 80%
[1]; [8]
  % FF (percentage of leaf feeding): 100%
[1]; [9]
  % FF (percentage of leaf feeding): 20%
[1]; [10]
  % FF (percentage of leaf feeding): 50%
[1]; [11]
  % FF (percentage of leaf feeding): 50%
[1]; [12]
  % FF (percentage of leaf feeding): 10%

## Cc1cc(Cl)cc(C(=O)NC(C)C)c1NC(=O)c1cc(Cl)nn1-c1ncccc1Cl [Compound 543]
[1]; [7]
  % FF (percentage of leaf feeding): 30%
[1]; [8]
  % FF (percentage of leaf feeding): 30%
[1]; [9]
  % FF (percentage of leaf feeding): 5%
[1]; [10]
  % FF (percentage of leaf feeding): 20%
[1]; [11]
  % FF (percentage of leaf feeding): 20%
[1]; [12]
  % FF (percentage of leaf feeding): 5%

## CNC(=O)c1cc(Cl)cc(C)c1NC(=O)c1cc(Br)nn1-c1ncccc1Cl [Compound 531]
[1]; [7]
  % FF (percentage of leaf feeding): 60%
[1]; [8]
  % FF (percentage of leaf feeding): 80%
[1]; [9]
  % FF (percentage of leaf feeding): 10%
[1]; [10]
  % FF (percentage of leaf feeding): 40%
[1]; [11]
  % FF (percentage of leaf feeding): 40%
[1]; [12]
  % FF (percentage of leaf feeding): 10%
[4]; granular bait 400 ppm, 1 DAT
  Average of Killed Fire Ants: 0.5
[4]; granular bait 400 ppm, 3 DAT
  Average of Killed Fire Ants: 1.3
[4]; granular bait 400 ppm, 7 DAT
  Average of Killed Fire Ants: 40.5
[4]; granular bait 400 ppm, 10 DAT
  Average of Killed Fire Ants: 50
[4]; granular bait 400 ppm, 14 DAT
  Average of Killed Fire Ants: 50
[4]; granular bait 2,000 ppm, 1 DAT
  Average of Killed Fire Ants: 1
[4]; granular bait 2,000 ppm, 3 DAT
  Average of Killed Fire Ants: 2
[4]; granular bait 2,000 ppm, 7 DAT
  Average of Killed Fire Ants: 43
[4]; granular bait 2,000 ppm, 10 DAT
  Average of Killed Fire Ants: 49.8
[4]; granular bait 2,000 ppm, 14 DAT
  Average of Killed Fire Ants: 50
[4]; granular bait 10,000 ppm, 1 DAT
  Average of Killed Fire Ants: 0
[4]; granular bait 10,000 ppm, 3 DAT
  Average of Killed Fire Ants: 2.3
[4]; granular bait 10,000 ppm, 7 DAT
  Average of Killed Fire Ants: 42.8
[4]; granular bait 10,000 ppm, 10 DAT
  Average of Killed Fire Ants: 50
[4]; granular bait 10,000 ppm, 14 DAT
  Average of Killed Fire Ants: 50
[5]; peanut butter bait 400 ppm, 1 DAT
  Average of Killed Cockroaches: 3.8
[5]; peanut butter bait 400 ppm, 2 DAT
  Average of Killed Cockroaches: 5.8
[5]; peanut butter bait 400 ppm, 3 DAT
  Average of Killed Cockroaches: 6.3
[5]; peanut butter bait 400 ppm, 5 DAT
  Average of Killed Cockroaches: 7
[5]; peanut butter bait 400 ppm, 7 DAT
  Average of Killed Cockroaches: 7
[5]; peanut butter bait 2000 ppm, 1 DAT
  Average of Killed Cockroaches: 6.3
[5]; peanut butter bait 2000 ppm, 2 DAT
  Average of Killed Cockroaches: 8
[5]; peanut butter bait 2000 ppm, 3 DAT
  Average of Killed Cockroaches: 8.8
[5]; peanut butter bait 2000 ppm, 5 DAT
  Average of Killed Cockroaches: 9
[5]; peanut butter bait 2000 ppm, 7 DAT
  Average of Killed Cockroaches: 9
[5]; peanut butter bait 10000 ppm, 1 DAT
  Average of Killed Cockroaches: 9.5
[5]; peanut butter bait 10000 ppm, 2 DAT
  Average of Killed Cockroaches: 9.5
[5]; peanut butter bait 10000 ppm, 3 DAT
  Average of Killed Cockroaches: 9.5
[5]; peanut butter bait 10000 ppm, 5 DAT
  Average of Killed Cockroaches: 9.5
[5]; peanut butter bait 10000 ppm, 7 DAT
  Average of Killed Cockroaches: 9.5

## CNC(=O)c1cc(Cl)cc(C)c1NC(=O)c1cc(OCC(F)(F)F)nn1-c1ncccc1Cl
other
  melting point: 215 to 217 °C

## Cc1cccc(C(=O)NC(C)C)c1NC(=O)c1cc(Br)nn1-c1ncccc1Cl [Compound 283]
[3]
  protection of squares and bolls: excellent protection of squares and boils including no or minimal sepal damage

## Cc1cc(Br)cc(C(=O)NC(C)C)c1NC(=O)c1cc(Br)nn1-c1ncccc1Cl [Compound 520]
[3]
  protection of squares and bolls: excellent protection of squares and boils including no or minimal sepal damage

## CNC(=O)c1cc(Br)cc(C)c1NC(=O)c1cc(C(F)(F)F)nn1-c1ncccc1Cl [Compound 542]
[6]
  mortality: at least 90%

## Cc1cccc(C(=O)NC(C)C)c1NC(=O)c1cc(C(F)(F)F)nn1-c1ncccc1C(F)(F)F
other
  melting point: 233 to 235 °C
